ChEMBL document CHEMBL3046389, “Synthesis and biological evaluation of novel hydroquinone dimethyl ethers as potential anticancer and antimicrobial agents” (2013)
≈ marks a conversion by molar mass, not a printed value.

How the values were obtained:
Assay type in all cases: functional
[1] = system: HOP-62; experiment: Anticancer activity against Homo sapiens (human) HOP62 cells after 48 hr by SRB assay; conditions: HOP-62, 48 h
[2] = system: A549; experiment: Anticancer activity against Homo sapiens (human) A549/ATCC cells after 48 hr by SRB assay; conditions: A549, 48 h
[3] = system: SR; experiment: Anticancer activity against Homo sapiens (human) SR cells after 48 hr by SRB assay
[4] = system: MOLT-4; experiment: Anticancer activity against Homo sapiens (human) MOLT4 cells after 48 hr by SRB assay; conditions: MOLT-4, 48 h
[5] = system: HCC 2998; experiment: Growth inhibition of Homo sapiens (human) HCC2998 cells at 10 uM after 48 hr by SRB assay; conditions: HCC 2998, 48 h, read-out: GI
[6] = system: BT-549; experiment: Growth inhibition of Homo sapiens (human) BT549 cells at 10 uM after 48 hr by SRB assay; conditions: BT-549, 48 h, read-out: GI
[7] = system: Hs-578T; experiment: Growth inhibition of Homo sapiens (human) Hs 578T cells at 10 uM after 48 hr by SRB assay; conditions: read-out: GI
[8] = system: MCF7; experiment: Growth inhibition of Homo sapiens (human) MCF7 cells at 10 uM after 48 hr by SRB assay; conditions: MCF7, 48 h, read-out: GI
[9] = system: PC-3; experiment: Growth inhibition of Homo sapiens (human) PC3 cells at 10 uM after 48 hr by SRB assay; conditions: PC-3, 48 h, read-out: GI
[10] = system: UO-31; experiment: Growth inhibition of Homo sapiens (human) UO31 cells at 10 uM after 48 hr by SRB assay; conditions: UO-31, 48 h, read-out: GI
[11] = system: SN12C; experiment: Growth inhibition of Homo sapiens (human) SN12C cells at 10 uM after 48 hr by SRB assay; conditions: read-out: GI
[12] = system: LOX IMVI; experiment: Anticancer activity against Homo sapiens (human) LOXIMVI cells after 48 hr by SRB assay
[13] = system: SF-539; experiment: Anticancer activity against Homo sapiens (human) SF539 cells after 48 hr by SRB assay; conditions: SF-539, 48 h
[14] = system: KM12; experiment: Anticancer activity against Homo sapiens (human) KM12 cells after 48 hr by SRB assay; conditions: KM12, 48 h
[15] = system: HCT-15; experiment: Anticancer activity against Homo sapiens (human) HCT15 cells after 48 hr by SRB assay; conditions: HCT-15, 48 h
[16] = system: HCT-116; experiment: Anticancer activity against Homo sapiens (human) HCT116 cells after 48 hr by SRB assay; conditions: HCT-116, 48 h
[17] = system: HCC 2998; experiment: Anticancer activity against Homo sapiens (human) HCC2998 cells after 48 hr by SRB assay; conditions: HCC 2998, 48 h
[18] = system: NCI-H23; experiment: Growth inhibition of Homo sapiens (human) NCI-H23 cells at 10 uM after 48 hr by SRB assay; conditions: NCI-H23, 48 h, read-out: GI
[19] = system: HOP-62; experiment: Growth inhibition of Homo sapiens (human) HOP62 cells at 10 uM after 48 hr by SRB assay; conditions: HOP-62, 48 h, read-out: GI
[20] = system: Staphylococcus aureus; experiment: Antimicrobial activity against Staphylococcus aureus DSM 1104 after 48 hr by two-fold serial broth dilution method; conditions: DSM 1104, 48 h
[21] = system: TK-10; experiment: Anticancer activity against Homo sapiens (human) TK10 cells after 48 hr by SRB assay; conditions: TK-10, 48 h
[22] = system: CAKI-1; experiment: Anticancer activity against Homo sapiens (human) CAKI-1 cells after 48 hr by SRB assay; conditions: CAKI-1, 48 h
[23] = system: 786-0; experiment: Anticancer activity against Homo sapiens (human) 786-0 cells after 48 hr by SRB assay; conditions: 786-0, 48 h
[24] = system: NCI/ADR-RES; experiment: Anticancer activity against Homo sapiens (human) NCI/ADR-RES cells after 48 hr by SRB assay
[25] = system: OVCAR-5; experiment: Anticancer activity against Homo sapiens (human) OVCAR5 cells after 48 hr by SRB assay; conditions: OVCAR-5, 48 h
[26] = system: OVCAR-8; experiment: Anticancer activity against Homo sapiens (human) OVCAR8 cells after 48 hr by SRB assay; conditions: OVCAR-8, 48 h
[27] = system: OVCAR-3; experiment: Anticancer activity against Homo sapiens (human) OVCAR3 cells after 48 hr by SRB assay; conditions: OVCAR-3, 48 h
[28] = system: IGROV-1; experiment: Anticancer activity against Homo sapiens (human) IGROV1 cells after 48 hr by SRB assay; conditions: IGROV-1, 48 h
[29] = system: M14; experiment: Anticancer activity against Homo sapiens (human) M14 cells after 48 hr by SRB assay; conditions: M14, 48 h
[30] = system: Escherichia coli; experiment: Antimicrobial activity against Escherichia coli ATCC 11775 after 48 hr by two-fold serial broth dilution method; conditions: ATCC 11775, 48 h
[31] = system: Malme-3M; experiment: Growth inhibition of Homo sapiens (human) MALME-3M cells at 10 uM after 48 hr by SRB assay; conditions: read-out: GI
[32] = system: LOX IMVI; experiment: Growth inhibition of Homo sapiens (human) LOXIMVI cells at 10 uM after 48 hr by SRB assay; conditions: read-out: GI
[33] = system: SF-295; experiment: Growth inhibition of Homo sapiens (human) SF295 cells at 10 uM after 48 hr by SRB assay; conditions: SF-295, 48 h, read-out: GI
[34] = system: KM12; experiment: Growth inhibition of Homo sapiens (human) KM12 cells at 10 uM after 48 hr by SRB assay; conditions: KM12, 48 h, read-out: GI
[35] = read-out: LC50 (the source's name)

SMILES: COc1ccc(OC)c(/C=C/C(=O)N/N=C/c2ccc(Cl)cc2)c1
- GI50 [1]: 162 nM
- TGI [1]: 50.2 µM
- CC50 [1, 35]: > 100 µM
- GI50 [2]: 242 nM
- TGI [2]: > 100 µM
- CC50 [2, 35]: > 100 µM
- GI50 [3]: 39 nM
- TGI [3]: 16.4 µM
- CC50 [3, 35]: > 100 µM
- GI50 [4]: 523 nM
- TGI [4]: > 100 µM
- CC50 [4, 35]: > 100 µM
- inhibition of growth at 10 µM [5]: 97.7%
- inhibition of growth at 10 µM [6]: 36.5%
- inhibition of growth at 10 µM [7]: 102%
- inhibition of growth at 10 µM [8]: 91.1%
- inhibition of growth at 10 µM [9]: 73.8%
- inhibition of growth at 10 µM [10]: 69.9%
- inhibition of growth at 10 µM [11]: 53.8%
- GI50 [12]: 254 nM
- TGI [12]: > 100 µM
- CC50 [12, 35]: > 100 µM
- GI50 [13]: 258 nM
- TGI [13]: 3.16 µM
- CC50 [13, 35]: > 100 µM
- GI50 [14]: 52.2 nM
- TGI [14]: 8.48 µM
- CC50 [14, 35]: > 100 µM
- GI50 [15]: 83.5 nM
- TGI [15]: > 100 µM
- CC50 [15, 35]: > 100 µM
- GI50 [16]: 75 nM
- TGI [16]: 3.05 µM
- CC50 [16, 35]: > 100 µM
- GI50 [17]: 139 nM
- TGI [17]: 1190 nM
- CC50 [17, 35]: 6.52 µM
- inhibition of growth at 10 µM [18]: 65.2%
- inhibition of growth at 10 µM [19]: 62.1%
- MBC [20]: 100 µg/mL (≈ 290 µM)
- MIC [20]: 100 µg/mL (≈ 290 µM)
- GI50 [21]: 691 nM
- TGI [21]: > 100 µM
- CC50 [21, 35]: > 100 µM
- GI50 [22]: 87.9 nM
- TGI [22]: > 100 µM
- CC50 [22, 35]: > 100 µM
- GI50 [23]: 326 nM
- TGI [23]: > 100 µM
- CC50 [23, 35]: > 100 µM
- GI50 [24]: 39.1 nM
- LC50 [24]: 90.6 µM
- TGI [24]: 233 nM
- GI50 [25]: 10.9 µM
- TGI [25]: > 100 µM
- CC50 [25, 35]: > 100 µM
- GI50 [26]: 350 nM
- LC50 [26]: > 100 µM
- TGI [26]: > 100 µM
- GI50 [27]: 33.5 nM
- LC50 [27]: > 100 µM
- TGI [27]: 115 nM
- GI50 [28]: 187 nM
- LC50 (50% lethal concentration) [28]: > 100 µM
- TGI [28]: 62.9 µM
- GI50 [29]: 87.9 nM
- LC50 [29]: > 100 µM
- TGI [29]: 6.7 µM
- MBC [30]: 100 µg/mL (≈ 290 µM)
- MIC [30]: 50 µg/mL (≈ 145 µM)
- inhibition of growth at 10 µM [31]: 45.9%
- inhibition of growth at 10 µM [32]: 63.3%
- inhibition of growth at 10 µM [33]: 68.2%
- inhibition of growth at 10 µM [34]: 82%
